Data published in patent US7468368B2, “Piperazinylacylpiperidine derivatives, their preparation and therapeutic use thereof” (Sanofi Aventis, priority 2002, dated 2008).
Counter-ions that a name gives are not always drawn.

| SMILES | melting point [°C] |
| --- | --- |
| CC(C)N(C)CC1(c2cccc(C(F)(F)F)c2)CCN(C(=O)CN2CCN(c3cnccn3)CC2)CC1.Cl.Cl.Cl | 185 to 200 |
| O=C(CN1CCN(c2ccncn2)CC1)N1CC=C(c2cccc(C(F)(F)F)c2)CC1 (as salt: oxalate) [Compound No. 27, 2-[4-(4-Pyrimidinyl)-1-piperazinyl]-1-[4-[3-(trifluoromethyl)phenyl]-3,6-dihydro-1(2H)-pyridyl]-1-ethanone dioxalate] | 160 |
| NCC1(c2cccc(C(F)(F)F)c2)CCN(C(=O)CN2CCN(c3cnccn3)CC2)CC1 [Compound No. 4, 1-[4-(Aminomethyl)-4-[3-(trifluoromethyl)phenyl]-1-piperidyl]-2-[4-(2-pyrazinyl)-1-piperazinyl]-1-ethanone] | 152 to 153 |
| COc1cccc(C2(CN)CCN(C(=O)CN3CCN(c4cnccn4)CC3)CC2)c1.O=C(O)C(=O)O.O=C(O)C(=O)O | 120 |

Results, then the molecule that gave them:

| melting point [°C] | SMILES |
| --- | --- |
| 118 | CN(C)CC1(c2cccc(C(F)(F)F)c2)CCN(C(=O)CN2CCN(c3cnccn3)CC2)CC1 [Compound No. 33, 1-[4-[(Dimethylamino)methyl]-4-[3-(trifluoromethyl)phenyl]-1-piperidyl]-2-[4-(2-pyrazinyl)-1-piperazinyl]-1-ethanone] |
| 138 to 139 | NCC1(c2cccc(Cl)c2)CCN(C(=O)CN2CCN(c3cnccn3)CC2)CC1 [Compound No. 65, 1-[4-(Aminomethyl)-4-(3-chlorophenyl)-1-piperidyl]-2-[4-(2-pyrazinyl)-1-piperazinyl]-1-ethanone] |
| 137 to 139 | CNCC1(c2cccc(C(F)(F)F)c2)CCN(C(=O)CN2CCN(c3cnccn3)CC2)CC1 [Compound No. 57, 1-[4-[(Methylamino)methyl]-4-[3-(trifluoromethyl)phenyl]-1-piperidyl]-2-[4-(2-pyrazinyl)-1-piperazinyl]-1-ethanone] |
| 223 | O=C(CN1CCN(c2cnccn2)CC1)N1CCC(CO)(c2cccc(C(F)(F)F)c2)CC1 [Compound No. 32, 1-[4-(Hydroxymethyl)-4-[3-(trifluoromethyl)phenyl]-1-piperidyl]-2-[4-(2-pyrazinyl)-1-piperazinyl]-1-ethanone] |
